The values below come from publication PMC6788984, “High-potency ligands for DREADD imaging and activation in rodents and monkeys” (Nature Communications, 2019).

Structures are written as SMILES. Values joined by “and” are separate entries in the source; they are usually repeats but may differ in a detail not shown here. Equal values may be shown once.

Data set [1] relates to WT mice. Put plainly: [18F]FDG PET metabolic mapping in WT mice. In kind it is in vivo, mouse. The protocol:
Mice (D1-hM3Dq, D1-hM4Di or WT littermates, see above) were habituated to experimenter handling and fasted 16 h before the experiment. On the day of the experiment, mice received an IP injection of vehicle (1 ml kg^−1) and were placed back into their home cages. Ten minutes later, mice were injected (IP) with 11 MBq of 2-deoxy-2-[^18F]fluoro-D-glucose (FDG, Cardinal Health) and placed back into their home cages. After 30 min, mice were anesthetized with 1.5% isoflurane, placed on a custom-made bed of a nanoScan small animal PET/CT scanner (Mediso Medical Imaging Systems) and scanned for 20 min on a static acquisition protocol, followed by a CT scan. […] Voxel-based repeated measures with Student’s t test comparing baseline to drug were performed, and the resulting parametric images were filtered for statistically significant (p < 0.05) clusters larger than 100 contiguous voxels. All statistical parametric mapping analyses were performed using Matlab R2016 (Mathworks) and SPM12 (University College London).

The test system of data set [2] is endogenous binding sites. Type of data set: in vivo. As to conditions: monkey. The protocol: (§1) All macaque studies were acquired dynamically on the Focus 220 PET scanner (Siemens Medical Solutions, Knoxville, TN). The Focus 220 is a dedicated pre-clinical scanner with a transaxial FOV of 19 cm and an axial FOV of 7.5 cm. Image resolution is <2 mm within the central 5 cm FOV.
(§2) After initial evaluation the monkey was sedated with ketamine (10 mg kg^−1) followed by ketoprofen (as an analgesic) and glycopyrrolate (for salvia reduction), all weight dependent IM injections. The monkey would then be placed in the supine position, intubated with a tracheal tube. Anesthesia was maintained by 1–3.5% isoflurane and oxygen, the monkey’s head was positioned and immobilized for optimal positioning of the brain and moved into the scanner. A 10-min transmission scan using a Co-57-point source for attenuation correction was performed. One iv was inserted, if possible, in the right arm and one in the right leg for injection of tracer and blocking agent. The monkey was always monitored while anesthetized. HR, BP, O2 saturation, RR, three lead ECG, rectal temperature was documented every 15 min.
Arterial blood sampling was acquired throughout the study using an indwelling femoral port. The first 2 min samples were collected every 15 s then at 3, 5, 10, 30, 60, 90, and 120 min post tracer injection. All scans were acquired for 120 min using list mode acquisition. […]
To determine the arterial input function for the radiotracers injected in rhesus monkeys radioligand concentrations in the arterial plasma were corrected by the unchanged parent fraction. […] The unchanged plasma parent fractions were determined by radio-HPLC on an X-terra® C18 column (10 µm, 7.8 mm × 300 mm, Waters Corp., Milford, MA), and eluted with MeOH:H2O:Et3N (80:20:0.1; by volume) at an isocratic flow rate of 4.0 mL min^−1. Eluates were monitored with an in-line flow-through NaI(Tl) scintillation detector (Bioscan). Data were stored and analyzed on a PC using the software “Bio-ChromeLite”. […] Plasma free fraction was determined according to our previous methods.

The target of data set [3] is T1, hM4Di (Homo sapiens, UniProt P08173, A203G/Y113C).
T1 sequence (P08173 1-479 Y113C/A203G): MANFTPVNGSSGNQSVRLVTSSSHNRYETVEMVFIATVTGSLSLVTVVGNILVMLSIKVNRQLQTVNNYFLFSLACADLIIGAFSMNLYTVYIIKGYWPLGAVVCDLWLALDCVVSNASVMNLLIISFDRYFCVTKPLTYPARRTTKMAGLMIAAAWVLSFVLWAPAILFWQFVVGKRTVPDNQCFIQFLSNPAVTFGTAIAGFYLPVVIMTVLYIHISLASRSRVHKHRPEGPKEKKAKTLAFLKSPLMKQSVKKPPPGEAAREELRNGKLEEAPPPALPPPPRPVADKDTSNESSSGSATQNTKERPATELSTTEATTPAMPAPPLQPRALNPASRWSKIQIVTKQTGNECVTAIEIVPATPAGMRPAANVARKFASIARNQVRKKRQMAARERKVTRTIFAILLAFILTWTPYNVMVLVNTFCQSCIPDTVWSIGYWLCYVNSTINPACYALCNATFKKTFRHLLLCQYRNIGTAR
Briefly: [11C]clozapine PET occupancy in monkey expressing hM4Di in the amygdala. In kind it is in vivo, rhesus monkey (Macaca mulatta). Set-up: expressed in transfected cells; host or cells: rhesus monkey (Macaca mulatta) right amygdala, lentivirus-transduced neurons. As for the experimental part:
Lentivirus expressing an hM4Di-CFP fusion protein under an hSyn promoter[11] with a titer of >10^9 infectious particles was loaded into a 100 µL glass syringe (Hamilton Co., MA). The 31-gauge needle of the syringe was sheathed with a silica capillary (450 µm OD) to create a step 1 mm from the base of the aperture. The syringe was mounted in a Nanomite pump (Harvard Apparatus, Cambridge, MA). The needle was lowered through the incision in the dura mater to each of the pre-calculated target sites and 10 or 20 µL was infused at a rate of 1 µL min^−1. Each monkey received a total of between 10 and 12 injections (for a total injection volume of 120–240 µL). Post-infusion, the needle was left in situ for 10 min after each injection to allow pressure from the infusate to dissipate. The needle was then slowly removed. At the completion of the injection series the soft tissues were sutured together in anatomical layers.
as §1, §2
Arterial blood sampling was acquired throughout the study using an indwelling femoral port. The first 2 min samples were collected every 15 s then at 3, 5, 10, 30, 60, 90, and 120 min post tracer injection. All scans were acquired for 120 min using list mode acquisition.
Scan data were histogrammed into 33 frames (6 × 30 s, 3 × 1 min, 2 × 2 min, and 22 × 5 min). Reconstruction was performed by Filtered Back Projection with scatter correction. After completion of the last study of the day, isoflurane was cut off. The monkey was gradually awakened, moved to the housing facility and fully recovered.

For data set [4], the system named is endogenous clozapine-binding sites. Put plainly: Autoradiography: displacement of [3H]clozapine in WT / non-DREADD mouse brain tissue. As to conditions: individual values. An excerpt:
(§3) Flash frozen tissue (both rodents and the monkey) was sectioned (20 µm) on a cryostat (Leica, Germany) and thaw mounted onto ethanol-washed glass slides. […] Slides were air dried and placed in a Hypercassette™ (Amersham Biosciences) and covered with a BAS-TR2025 Storage Phosphor Screen (FujiFilm, Japan). The slides were exposed to the screen for 5–7 days and imaged using a phosphor imager (Typhoon FLA 7000; GE Healthcare).

In data set [5] the target is hM3Dq (Homo sapiens, UniProt P20309, A239G/Y149C). Put plainly: Autoradiography: displacement of [3H]clozapine from hM3Dq in mouse brain sections. In kind it is binding. Set-up: 026220; host or cells: mouse brain, dopamine D1 receptor-expressing neurons (transgene). The following applies: hM3Dq and hM4Di; up to 10 nM.
Chain of hM3Dq (P20309 whole entry Y149C/A239G): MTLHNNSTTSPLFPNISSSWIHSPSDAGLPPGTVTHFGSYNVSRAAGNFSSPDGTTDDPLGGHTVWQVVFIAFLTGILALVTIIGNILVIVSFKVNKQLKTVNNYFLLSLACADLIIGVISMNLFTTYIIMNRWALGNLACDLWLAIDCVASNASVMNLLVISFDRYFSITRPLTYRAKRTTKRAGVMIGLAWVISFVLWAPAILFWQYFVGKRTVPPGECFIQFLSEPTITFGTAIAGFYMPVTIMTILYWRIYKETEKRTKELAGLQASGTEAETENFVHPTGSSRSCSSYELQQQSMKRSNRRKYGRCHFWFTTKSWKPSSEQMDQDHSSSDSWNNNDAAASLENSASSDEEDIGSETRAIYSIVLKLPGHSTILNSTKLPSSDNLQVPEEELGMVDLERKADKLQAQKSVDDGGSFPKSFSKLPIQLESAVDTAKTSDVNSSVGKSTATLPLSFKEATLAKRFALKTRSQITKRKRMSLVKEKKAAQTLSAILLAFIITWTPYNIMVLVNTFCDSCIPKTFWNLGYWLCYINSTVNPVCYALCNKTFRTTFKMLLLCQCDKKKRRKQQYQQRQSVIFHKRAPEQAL
Description: as §3

As to `c1ccc2c(c1)N=C(N1CCNCC1)c1ccccc1N2` [C21], the “brain metabolic activity ([18F]FDG)” value in data set [1] (1 mg/kg IP, 1 mg/kg) is “significant changes in brain metabolic activity”; in data set [1] (1 mg/kg IP, listed as Compound 21, 1 mg/kg) it was “decreased metabolic activity of multiple networks”. Also, in data set [2] (10 mg/kg), the off-target effects result was “extensive displacement of [^11C]clozapine binding at endogenous binding sites and non-specific effects”. In data set [3] (1 mg/kg IV), the “in vivo DREADD occupancy” value is “no measurable occupancy”. The hM4Di occupancy in data set [3] (10 mg/kg) was ~ 50%.
Regarding `CCN1CCN(C2=Nc3cc(Cl)ccc3Nc3cccc(F)c32)CC1` [JHU37152, 8-Chloro-11-(4-ethylpiperazin-1-yl)-1-fluoro-5H-dibenzo[b,e][1,4]diazepine], the “[3H]CLZ binding in mouse brain sections, WT” value in data set [4] (competitor concentration 0.001, listed as J52) was 119.578 and 91.3526 and 103.192 and 105.979 and 100.87 and 101.941; in data set [4] (competitor concentration 0.01, listed as J52), 85.3632 and 98.6721 and 100.487 and 96.5233 and 115.016 and 88.1843; in data set [4] (competitor concentration 1, listed as J52), 68.3087 and 51.6943 and 71.7816 and 75.1729 and 78.8993 and 70.8806. Further, the “in situ [3H]clozapine displacement in brain tissue from WT and D1-DREADD mice” value in data set [5] is “selective [^3H]clozapine displacement from DREADDs and not from other clozapine-binding sites”.
With `CCN1CCN(C2=Nc3cc(Cl)ccc3Nc3c(F)cccc32)CC1` [JHU37160, 8-Chloro-11-(4-ethylpiperazin-1-yl)-4-fluoro-5H-dibenzo[b,e][1,4]diazepine], the “[3H]CLZ binding in mouse brain sections, WT” value in data set [4] (competitor concentration 0.001, listed as J60) is 106.379 and 101.292 and 102.926 and 122.941 and 108.508 and 97.311; in data set [4] (competitor concentration 0.01, listed as J60) it was 120.43 and 105.789 and 111.318 and 118.633 and 118.689 and 124.215; in data set [4] (competitor concentration 1, listed as J60), 55.5737 and 82.7293 and 46.5386 and 44.7797 and 54.5308 and 62.9299. Further, the “brain metabolic activity ([18F]FDG)” value in data set [1] (0.1 mg/kg) was “no significant brain metabolic changes”; in data set [1] (0.1 mg/kg, listed as J60, 0.1 mg/kg), “did not show any significant changes in brain metabolic activity”. For the same molecule, in data set [2] (0.1 mg kg-1), the “[11C]clozapine binding after drug, L_Amygdala” value is recorded as 0.2865. The “[11C]clozapine binding after drug, PFC” value in data set [2] (0.1 mg kg-1) is reported as 0.3429. Besides, the “in situ [3H]clozapine displacement in brain tissue from WT and D1-DREADD mice” value in data set [5] was “selective [^3H]clozapine displacement from DREADDs and not from other clozapine-binding sites”. Further, the “[11C]clozapine displacement at hM4Di expressed in the amygdala” value in data set [3] (0.1 mg kg-1 (lesser extent 0.01 mg kg-1)) is “produced [^11C]clozapine DREADD displacement at hM4Di”. In data set [3] (0.1 mg kg-1, hM4Di-expressing region), the “[11C]clozapine binding after drug, R_Amygdala” value is on record as 0.6176.
